System: Plasmodium falciparum
Assay: GSK_TCMDC: Inhibition of Plasmodium falciparum 3D7 in whole erythrocytes, using parasite LDH activity as an index of growth.
Assay type: functional, organism-based

Compound CN1CCN(CC(=O)Nc2ccc(-c3ccc(-c4nc5cc(C(F)(F)F)ccc5[nH]4)cc3)cc2)CC1 has an XC50 (Plasmodium falciparum, 3D7) of 420 nM.

CC(C)C[C@@H](/C=N/N1CCOC1=O)NC(=O)[C@H](CC(C)C)NC(=O)c1ccc(OCCN2CCOCC2)cc1 was tested, and the XC50 (Plasmodium falciparum, 3D7) was 215 nM.

Work on Nc1cc(/C=C/c2ccc([N+](=O)[O-])o2)nc2ccccc12 yielded an XC50 (Plasmodium falciparum, 3D7) of 367 nM.

Compound COc1cccc(NC(=O)NC2CCN(c3ccnc(Nc4cc(OC)c(OC)c(OC)c4)n3)C2)c1 (centres undefined) has an XC50 (Plasmodium falciparum, 3D7) of 856 nM.

In the case of Cc1c(F)cc(C(=O)NC2CC2)cc1-c1ccc2c(cnn2S(=O)(=O)c2ccc(F)c(F)c2)c1, the XC50 (Plasmodium falciparum, 3D7) is reported as 265 nM.

c1cc(-c2ccc(CNC3CCOCC3)cc2)cc(-c2nc3ccccc3[nH]2)c1 was tested, and the XC50 (Plasmodium falciparum, 3D7) was 768 nM.

CCc1nc2ccc(C(=O)OC)nc2n1Cc1ccc2oc(-c3ccccc3N)c(Br)c2c1 gave an XC50 (Plasmodium falciparum, 3D7) of 822 nM.

CC(C)C1c2ccc(O)cc2CC2C(=O)N(C3CCCCC3)C(=O)N21 (centres undefined) was tested, and the XC50 (Plasmodium falciparum, 3D7) was 884 nM.

In the case of Cc1ccc(CNC(=O)c2cc3c(=O)n4cccc(C)c4nc3n(CCN3CCOCC3)c2=N)cc1, the XC50 (Plasmodium falciparum, 3D7) is reported as 854 nM.

In the case of CC(C)CCn1c(Sc2ccc([N+](=O)[O-])cc2C(F)(F)F)nnc1-c1ccccc1Cl, the XC50 (Plasmodium falciparum, 3D7) is reported as 919 nM.

Compound CN(CCCCCNC(=O)/C=C/c1ccc(Cl)c(Cl)c1)CCc1c[nH]c2ccccc12 has an XC50 (Plasmodium falciparum, 3D7) of 874 nM.

CCCCCCCCc1nc(C)c(Br)c(O)c1Br gave an XC50 (Plasmodium falciparum, 3D7) of 178 nM.

Cn1cnc(CCNC(=O)c2ccc(-c3ccc(-c4nc5cc(C(F)(F)F)ccc5[nH]4)s3)cc2)c1 showed an XC50 (Plasmodium falciparum, 3D7) of 402 nM.

CC(=O)Nc1ccc(CN2CCC(NC(=O)c3ccc(-c4cccc(F)c4)s3)CC2)cc1 gave an XC50 (Plasmodium falciparum, 3D7) of 1430 nM.

Cn1ccc(C(=O)Nc2ccc3c(c2)CN(Cc2ccc(N4CCCC4)o2)CCC3)n1 was tested, and the XC50 (Plasmodium falciparum, 3D7) was 1310 nM.

O=C(c1ccc([N+](=O)[O-])o1)N1CCN(c2nc3c(F)cc(F)cc3s2)CC1 showed an XC50 (Plasmodium falciparum, 3D7) of 974 nM.

COc1ccc(C(=O)C2CC2CN2CC=C(c3c[nH]c4ccc(OC)nc34)CC2)cc1 (centres undefined) gave an XC50 (Plasmodium falciparum, 3D7) of 479 nM.

CCOc1ccc(C(C)NC(=O)c2cc(Cl)ccc2OC)cc1OCC (centres undefined) showed an XC50 (Plasmodium falciparum, 3D7) of 971 nM.

Cc1ccc(-c2ccc(NC(=O)N3CCc4cc(Br)c(N5CCN(C)CC5)cc43)cc2)cn1 showed an XC50 (Plasmodium falciparum, 3D7) of 1350 nM.

In the case of Cc1cccc2[nH]cc(C3CCN(CCC4CCN(C(=O)/C=C/c5ccc(Cl)c(Cl)c5)CC4)CC3)c12, the XC50 (Plasmodium falciparum, 3D7) is reported as 1220 nM.

O=C(N[C@@H](Cc1ccccc1)[C@H](O)CNC1CCOCC1)c1cc(C2CCCC2)cc(N2CCCCS2(=O)=O)c1 was tested, and the XC50 (Plasmodium falciparum, 3D7) was 202 nM.

CC(=O)Nc1ccc(C(=O)Nc2cccc(-c3ccc(-c4nc5ccccc5[nH]4)s3)c2)cn1 gave an XC50 (Plasmodium falciparum, 3D7) of 180 nM.

In the case of CCOc1ccccc1N1CCN(CCCNC(=O)/C(=C/C=C/c2cc3cc(Cl)c(Cl)cc3[nH]2)OC)CC1, the XC50 (Plasmodium falciparum, 3D7) is reported as 851 nM.

COc1ccccc1N1CCN(c2cccc(F)c2C#N)CC1 was tested, and the XC50 (Plasmodium falciparum, 3D7) was 965 nM.

COc1ccc(-c2ccc(CNCc3ccc(F)cc3)cc2)cc1S(=O)(=O)NCCN1CCCC1 gave an XC50 (Plasmodium falciparum, 3D7) of 731 nM.

Cc1[nH]c2ccccc2c1C1=CCN(CCCCCNC(=O)/C=C/c2ccc(Cl)c(Cl)c2)CC1 was tested, and the XC50 (Plasmodium falciparum, 3D7) was 272 nM.

COc1ccc(CNC2CCN(C)CC2)cc1-c1ccc(S(=O)(=O)NC2CCC2)c(F)c1 showed an XC50 (Plasmodium falciparum, 3D7) of 840 nM.

CC(C)C(=O)Nc1c(F)cc(F)cc1CCc1ccc(O)cc1 gave an XC50 (Plasmodium falciparum, 3D7) of 504 nM.

Compound Fc1ccc2[nH]c(-c3cccc(-c4cccc(CNCc5ccccc5)c4)c3)nc2c1 has an XC50 (Plasmodium falciparum, 3D7) of 283 nM.

Work on Clc1ccc(-c2csc3ncnc(Cl)c23)cc1 yielded an XC50 (Plasmodium falciparum, 3D7) of 460 nM.

For COC(=O)CCn1c(C2CCN(CC3CCC(NC(=O)/C=C/c4ccc(Cl)c(Cl)c4)CC3)CC2)nc2ccccc21 (centres undefined), the XC50 (Plasmodium falciparum, 3D7) was 951 nM.

In the case of S=C(Nc1ccccc1Cl)NC1CCC(CN2CCC(c3c[nH]c4ccccc34)CC2)CC1 (centres undefined), the XC50 (Plasmodium falciparum, 3D7) is reported as 1050 nM.

For CCOc1cc(C(=O)NCCN2CCCCC2)ccc1-c1nc2cc(Cl)ccc2[nH]1, the XC50 (Plasmodium falciparum, 3D7) was 1080 nM.

CC(C)(C)c1ccc(NC(=O)Nc2ccc(Cn3ncc(N4CCCNCC4)c(Cl)c3=O)cc2)cc1 gave an XC50 (Plasmodium falciparum, 3D7) of 752 nM.

Work on CC(C)Oc1cc2c(cc1NS(=O)(=O)c1ccc(-c3ccc(Cl)cc3)cc1F)CCN(C)CC2 yielded an XC50 (Plasmodium falciparum, 3D7) of 919 nM.

For COc1ccc2nc3cc(Cl)ccc3c(NCc3ccccc3)c2c1, the XC50 (Plasmodium falciparum, 3D7) was 866 nM.

Work on Cc1cccc2nc(-c3ccc(-c4ccc(NC(=O)Nc5ccc(Cl)cc5)cc4)s3)[nH]c12 yielded an XC50 (Plasmodium falciparum, 3D7) of 152 nM.

With COc1ccc(Cc2c(N)nc3nc(N)nc(N)c3c2C)cc1 the XC50 (Plasmodium falciparum, 3D7) was 189 nM.

In the case of O=C(Nc1ccccc1)c1c[nH]cn1, the XC50 (Plasmodium falciparum, 3D7) is reported as 991 nM.

O=C(c1ccc([N+](=O)[O-])o1)N1CCN(c2nc3c(Cl)cccc3s2)CC1 gave an XC50 (Plasmodium falciparum, 3D7) of 980 nM.

Compound COc1ccc(-c2csc(N(CCCN(C)C)C(=O)c3cc4c(C)nn(-c5ccccc5)c4s3)n2)cc1 has an XC50 (Plasmodium falciparum, 3D7) of 623 nM.

Compound O=C(/C=C/c1ccc([N+](=O)[O-])cc1)N1CCC(CCN2CCC(c3c[nH]c4ccccc34)CC2)CC1 has an XC50 (Plasmodium falciparum, 3D7) of 743 nM.

Compound CCc1ccc(CN2CCC(CN(C(=O)c3ccccc3)c3ccc(Cl)cc3)CC2)cc1 has an XC50 (Plasmodium falciparum, 3D7) of 991 nM.

With COc1cc2c(cc1OC)C(C(=O)Nc1ccc(C(F)(F)F)cc1)C(c1cccs1)N(C)C2=O (centres undefined) the XC50 (Plasmodium falciparum, 3D7) was 158 nM.

O=C(C=Cc1ccc(-c2ccccc2)cc1)NC1CCC(CN2CCC(c3c[nH]c4ccccc34)CC2)CC1 (centres undefined) showed an XC50 of 807 nM and an XC50 (Plasmodium falciparum, 3D7) of 738 nM.

N#Cc1c(N)nc(SCC(=O)Nc2cc(C(F)(F)F)ccc2Cl)c(C#N)c1-c1cccs1 was tested, and the XC50 (Plasmodium falciparum, 3D7) was 743 nM.

O=C(c1cc(C(=O)NC2CCCCC2)c(=O)n(C2CCCCC2)c1)c1cc(F)ccc1O gave an XC50 (Plasmodium falciparum, 3D7) of 627 nM.

Compound CNS(=O)(=O)CCNCc1ccc(-c2ccc3ncnc(Nc4ccc(OCc5ccccc5)cc4)c3c2)o1 has an XC50 (Plasmodium falciparum, 3D7) of 729 nM.

— ChEMBL document CHEMBL1157539, “Thousands of chemical starting points for antimalarial lead identification” (Nature, 2010)
